What was measured:
[1] = niacin 1500 mg (roughly equimolar dose); niacin was no arm of the trial; cited from earlier work
[2] = Stability of ARI-001 stored at 50° C., purity by LC-MS; assay type: physicochemical
Description: ARI-001 was synthesized as described above. Purity was determined independently before use in experiments by examination via liquid chromatography-mass spectroscopy (LC-MS). A sample of material was dissolved in water/acetonitrile and injected onto a Discovery C-18 reverse phase column. The mobile phase began as 2%:98% acetonitrile:water, which was held for three minutes, after which a linear gradient was started that ran over 6 minutes, increasing the percent of acetonitrile until a final ratio of 98%:2% acetonitrile:water was reached. This final ratio was held for 3 minutes. The major peak was identified as ARI-001.
Stability was determined by storing ARI-001 under 50° C. with no specified humidity requirement. At various time points over the course of 3 months (90 days), a small sample (<5 mg) of ARI-001 was collected for analysis using LC-MS under the same conditions as used for purity determination (vide supra).

[3] = ARI-001 concentrations in liver and adipose tissue vs plasma; assay type: in vivo, Golden Syrian hamster; conditions: HF/HS hamsters dosed 18 days; p<0.01
Description: Tissue samples were harvested from hamsters in the above-described 18-day experiment to determine the concentrations of ARI-001 in both liver and adipose tissue. Briefly, liver and adipose samples were harvested at the termination of the experiment; the samples were flash frozen in liquid nitrogen and then stored at −80° C. until used for analysis. To prepare for analysis, a sample of liver was excised from the frozen mass, weighed, and homogenized with a tissue grinder followed by sonication in buffer. The solid materials were then removed by centrifugation. To prepare for LC-MS analysis, the homogenate was then treated to the same preparation technique described for plasma preparation (vide supra). A sample of adipose was excised from the frozen mass, and transferred to a mortar and pestle cooled with liquid nitrogen. During grinding, liquid nitrogen was added to ensure the sample of adipose remained solid. The ground sample was transferred to a tared tube to weigh total sample. This ground sample was extracted with methanol, and this compound-containing methanol was separated from lipid by cooling to −20° C. […]
FIG. 8 graphs the correlation between concentrations of ARI-001 in plasma versus liver (left), and in plasma versus adipose (right). […] Pearson r was determined using all data points illustrated. P-value was determined for a 2-tailed t-test using all data points illustrated.

high fat-fed hamsters [4] = assay: Liver function tests (AST, ALT) in plasma of high fat-fed hamsters dosed 18 days; assay type: in vivo, Golden Syrian hamster
Description: These animals were dosed for 18 consecutive days, while being on a HF/HS diet for a total of nearly 5 weeks. We also examined the glucose levels in the plasma of these animals. For pharmacokinetic studies, we utilized wild type mice for both single and repeated administration study. Finally, pharmacokinetic studies were corroborated by data from single and repeated administration to monkeys. […] AST and ALT were measured using commercially available kits (Bio-Quant Diagnostic Kits, San Diego, Calif.). As expected, AST and ALT values from untreated hamsters (vehicle group) were very high, as the high fat diet leads to hepatomegaly and fatty liver. This disease state is reflected in the elevated AST and ALT levels.

high fat-fed hamsters [5] = assay: Plasma glucose in high fat-fed hamsters dosed 18 days; assay type: in vivo, Golden Syrian hamster; conditions: ARI-001 1120 and 2240 mg/kg
Description: These animals were dosed for 18 consecutive days, while being on a HF/HS diet for a total of nearly 5 weeks. We also examined the glucose levels in the plasma of these animals. For pharmacokinetic studies, we utilized wild type mice for both single and repeated administration study. Finally, pharmacokinetic studies were corroborated by data from single and repeated administration to monkeys.

[6] = Single-dose pharmacokinetic study of ARI-001 in wild type mice (PO, IP); assay type: in vivo, C57BL/6 mice; conditions: oral gavage or intraperitoneal injection
Description: Plasma from the 19 hamsters dosed with ARI-001 in the above described 18-day study was analyzed for concentrations of ARI-001. Concentrations were determined for these samples, which were collected 24 hours after the final dose was administered. Briefly, plasma drug concentrations for the non-GLP pharmacokinetic experiments were determined by LC-MS using an Applied Biosystems 4000Qtrap spectrometer with electrospray ionization. Samples were prepared for analysis by precipitation of plasma proteins with cold methanol. HPLC of the samples was done with an Agilent Eclipse C18 column and a methanol/water gradient containing 0.1% formic acid and 5 mM ammonium acetate. ARI-001 was detected using multiple reaction monitoring (MRM) in the positive ion mode. For quantitation, a standard curve was measured by addition of known amounts of ARI-001 to plasma from untreated animals and preparing in a manner identical to the samples from treated animals. […] Pearson r values were determined using all data points, as was the two-tailed P-value for the data set.
Wild type C57BL/6 mice were dosed with a single administration of ARI-001 in solution either via oral gavage (PO) or via intraperitoneal injection (IP). Blood samples were then collected at various time points over a 24-hour period; plasma was then analyzed for concentrations of ARI-001 as described earlier. […]

[7] = Multiple administration pharmacokinetic study of ARI-001 in wild type mice; assay type: in vivo, C57BL/6 mice; conditions: 996, 1493, 2240, 3360 mg/kg oral gavage daily, 30 days
Description: Wild type C57BL/6 mice were dosed with ARI-001 in solution via oral gavage daily for 30 consecutive days. Over the course of five 24-hour periods, blood was collected, and the resultant plasma was analyzed for concentrations of ARI-001. Four doses were used: 996 mg/kg, 1493 mg/kg, 2240 mg/kg, and 3360 mg/kg. […] However, these values were time-independent, as there was no trend observed between these parameters and days of administration. See FIGS. 15A-15D and FIGS. 16A-16B.

[8] = Pharmacokinetics of multiple administrations of ARI-001 to fasted monkeys; assay type: in vivo, Macaque monkeys; conditions: 288 mg/kg oral gavage once per day, seven days
Description: ARI-001 was administered to monkeys via oral gavage once per day for a total of seven days. Blood samples were collected after the first and after the last administrations to measure plasma concentrations of ARI-001.

[9] = Once daily vs twice daily dosing of ARI-001, plasma lipids in animal models; assay type: in vivo; conditions: ARI-001 given once daily

purity of ARI-001 on storage ([2]; after 90 days) [%] | purity of ARI-001 on storage ([2]; unregulated humidity, 65 days) [%] | correlation between concentrations of ARI-001 in plasma versus adipose [3] | correlation between concentrations of ARI-001 in plasma versus liver [3] | remaining plasma concentration of ARI-001 at the 24 hour timepoint [6] | Cmax levels and total 24-hour exposure (AUC) vs days of administration [7] | Cmax levels and total 24-hour exposure (AUC) vs dose [7] | Cmax value day 7 versus day 1 [8] | concentrations 24 hours after the first or the last doses [8] | plasma concentrations on day 1 versus day 7 [8] | SMILES | Cmax [1] | AST in plasma vs vehicle (high fat-fed hamsters [4]; ARI-001 2240 mg/kg) | ALT in plasma vs vehicle (high fat-fed hamsters [4]; ARI-001 1120 and 2240 mg/kg, dose-dependent) | glucose levels in comparison to the vehicle cohort (high fat-fed hamsters [5]) | changes in plasma lipids, once daily vs same total dose twice daily [9]
– | – | – | – | – | – | – | – | – | – | O=C(O)c1cccnc1 [Niacin, nicotinic acid] | about 30,000 ng/mL | – | – | – | –
95.9 | 98.9 | highly statistically significant | highly statistically significant | undetectable | time-independent | dose-dependent | higher on day 7 than on day 1 | essentially identical | very little difference | O=C(O)c1ccc(CCN2CCOCC2)nc1 [ARI-001] | – | drastically reduced | similarly reduced | neither dose of ARI-001 produced any significant change | greater than or equal to the lipid altering effects observed with the same total dose of ARI-001 given twice daily

— patent US9212142B2 (Trustees of Tufts College, priority 2010, dated 2015)
